Experimental findings from patent publication US9532990B2 (Zhejiang DTRM Biopharma Co. Ltd., priority 2014, dated 2017) are described below.

For this assay, the target named is BTK wild type (Homo sapiens (Human), UniProt Q06187). Description: Inhibition assay of BTK kinase activity (HTRF). The format is biochemical. How it is done:
Inhibition Assay of BTK Kinase Activity:
The enzyme reaction mixture of BTK wild type standard HTRF assay contained 1 nM BTK wild type, 1 μM biotin-TK1 peptide, and 30 μM ATP in a buffer. The enzyme reaction were carried out at room temperature for 60 minutes. […] The plates were incubated at room temperature for 60 minutes and then read in the Envision plate reader.

The mark [1] stands for this setting: all compounds with IC50 of less 10 nM, read-out: IC50 (BTK).

Each structure is given as a SMILES string. Where two headings read alike, the source gives them in different places. Some results are limits rather than exact numbers.

As usually defined, the IC50 is the midpoint of a concentration-inhibition curve.

BTK wild type, sequence (Q06187 whole entry): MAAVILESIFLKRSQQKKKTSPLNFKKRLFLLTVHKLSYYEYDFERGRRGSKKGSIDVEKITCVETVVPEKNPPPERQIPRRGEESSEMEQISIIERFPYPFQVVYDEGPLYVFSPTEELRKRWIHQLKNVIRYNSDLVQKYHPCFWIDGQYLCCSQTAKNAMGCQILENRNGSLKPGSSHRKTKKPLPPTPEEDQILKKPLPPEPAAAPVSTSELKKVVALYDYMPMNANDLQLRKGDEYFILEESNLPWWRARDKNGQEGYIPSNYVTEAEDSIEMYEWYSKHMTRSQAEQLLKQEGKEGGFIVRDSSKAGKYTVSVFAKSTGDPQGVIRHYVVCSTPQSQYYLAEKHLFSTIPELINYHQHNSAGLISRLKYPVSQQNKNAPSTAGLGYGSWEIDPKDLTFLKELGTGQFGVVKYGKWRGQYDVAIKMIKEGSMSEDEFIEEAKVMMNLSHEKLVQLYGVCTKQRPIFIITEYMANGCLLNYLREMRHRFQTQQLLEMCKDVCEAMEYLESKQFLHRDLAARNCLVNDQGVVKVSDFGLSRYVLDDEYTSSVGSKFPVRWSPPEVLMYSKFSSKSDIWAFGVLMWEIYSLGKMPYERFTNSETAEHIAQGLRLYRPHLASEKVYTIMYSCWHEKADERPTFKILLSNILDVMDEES

With `Nc1ncnc2c1c(-c1ccc(C(=O)c3cccc(F)c3)cc1F)nn2C1CCCN(C(=O)C2CO2)C1` (centres unmarked) [Compound 9, (3-(4-amino-3-(2-fluoro-4-(3-fluorobenzoyl)phenyl)-1H-pyrazolo[3,4-d]pyrimidin-1-yl)piperidin-1-yl)(oxiran-2-yl)methanone], the IC50 (read-out: BTK IC50) came out at 83 nM.
Still for that read-out and setting: the figure for `Nc1ncnc2c1c(-c1ccc(Oc3c(F)c(F)cc(F)c3F)cc1F)nn2[C@@H]1CCN(C(=O)C(Cl)Cl)C1` [Compound 103, 1-((R)-3-(4-amino-3-(2-fluoro-4-(2,3,5,6-tetrafluorophenoxy)phenyl)-1H-pyrazolo[3,4-d]pyrimidin-1-yl)pyrrolidin-1-yl)-2,2-dichloroethanone] is 546 nM.
On the same count and under the same terms, the figure for `C=CC(=O)N1CCCC(n2nc(-c3ccc(Oc4ccccc4NS(C)(=O)=O)cc3F)c3c(N)ncnc32)C1` (centres unmarked) [Compound 19, N-(2-(4-(1-(1-acryloylpiperidin-3-yl)-4-amino-1H-pyrazolo[3,4-d]pyrimidin-3-yl)-3-fluorophenoxy)phenyl)methanesulfonamide] is 67 nM; for `C=CC(=O)N1CCCC(n2nc(-c3ccc(C(=O)c4ccc(F)cc4)c(F)c3)c3c(N)ncnc32)C1` (centres unmarked) [Compound 1, 1-(3-(4-amino-3-(3-fluoro-4-(4-fluorobenzoyl)phenyl)-1H-pyrazolo[3,4-d]pyrimidin-1-yl)piperidin-1-yl)prop-2-en-1-one] it is 66 nM.
`C=CC(=O)NC(C)(C)Cn1nc(-c2ccc(Oc3c(F)c(F)cc(F)c3F)cc2F)c2c(N)ncnc21` [Compound 87, N-(1-(4-amino-3-(2-fluoro-4-(2,3,5,6-tetrafluorophenoxy)phenyl)-1H-pyrazolo[3,4-d]pyrimidin-1-yl)-2-methylpropan-2-yl)acrylamide] registered an IC50 below 10 nM. Besides, the half-maximal inhibitory concentration (IC50) (read-out: BTK IC50) was 8 nM.
In the case of `C=CC(=O)N1CC[C@@H](n2nc(-c3ccc(Oc4ccnc5cc(OC)c(OC)cc45)cc3F)c3c(N)ncnc32)C1` [Compound 89, 1-((R)-3-(4-amino-3-(4-(6,7-dimethoxyquinolin-4-yloxy)-2-fluorophenyl)-1H-pyrazolo[3,4-d]pyrimidin-1-yl)pyrrolidin-1-yl)prop-2-en-1-one], where the note is “read-out: BTK IC50”, the IC50 was determined as 25 nM.
Still for that read-out and setting: the figure for `N#CCN1CC[C@@H](n2nc(-c3ccc(Oc4c(F)c(F)cc(F)c4F)cc3F)c3c(N)ncnc32)C1` [Compound 113, 2-((R)-3-(4-amino-3-(2-fluoro-4-(2,3,5,6-tetrafluorophenoxy)phenyl)-1H-pyrazolo[3,4-d]pyrimidin-1-yl)pyrrolidin-1-yl)acetonitrile] is 207 nM.
For `Nc1ncnc2c1c(-c1ccc(Oc3c(F)c(F)cc(F)c3F)cc1F)nn2C1CCCN(C(=O)CCl)C1` (centres unmarked) [Compound 61, 1-(3-(4-amino-3-(2-fluoro-4-(2,3,5,6-tetrafluorophenoxy)phenyl)-1H-pyrazolo[3,4-d]pyrimidin-1-yl)piperidin-1-yl)-2-chloroethanone], the IC50 under setting [1] is below 10 nM and the IC50 (read-out: BTK IC50) is 0.8 nM.
For `C=CC(=O)N1CCCC(Cn2nc(-c3ccc(Oc4c(F)c(F)cc(F)c4F)cc3F)c3c(N)ncnc32)C1` (centres unmarked) [Compound 31, 1-(3-((4-amino-3-(2-fluoro-4-(2,3,5,6-tetrafluorophenoxy)phenyl)-1H-pyrazolo[3,4-d]pyrimidin-1-yl)methyl)piperidin-1-yl)prop-2-en-1-one], the IC50 (read-out: BTK IC50) came out at 15 nM.
On the same count and under the same terms, the figure for `C=CC(=O)N1CCC[C@H](n2nc(-c3ccc(Oc4c(F)c(F)cc(F)c4F)cc3F)c3c(N)ncnc32)C1` [Compound 34, 1-((S)-3-(4-amino-3-(2-fluoro-4-(2,3,5,6-tetrafluorophenoxy)phenyl)-1H-pyrazolo[3,4-d]pyrimidin-1-yl)piperidin-1-yl)prop-2-en-1-one] is 23 nM.
On to `Nc1ncnc2c1c(-c1ccc(Oc3c(F)c(F)cc(F)c3F)cc1F)nn2[C@@H]1CCN(C(=O)CCl)C1` [Compound 75, 1-((R)-3-(4-amino-3-(2-fluoro-4-(2,3,5,6-tetrafluorophenoxy)phenyl)-1H-pyrazolo[3,4-d]pyrimidin-1-yl)pyrrolidin-1-yl)-2-chloroethanone], for which the IC50 was below 10 nM. Besides, the IC50 (read-out: BTK IC50) was determined as 3 nM.
For the compound `C=CC(=O)N1CCCC(n2nc(-c3ccc(C(=O)c4ccc(F)cc4)cc3F)c3c(N)ncnc32)C1` (centres unmarked) [Compound 2, 1-(3-(4-amino-3-(2-fluoro-4-(4-fluorobenzoyl)phenyl)-1H-pyrazolo[3,4-d]pyrimidin-1-yl)piperidin-1-yl)prop-2-en-1-one], the IC50 (read-out: BTK IC50) stood at 5 nM.
With `C=CC(=O)N1CCCC(n2nc(-c3ccc(Oc4c(F)c(F)cc(F)c4F)cc3F)c3c(N)ncnc32)C1` (centres unmarked) [Compound 11, 1-(3-(4-amino-3-(2-fluoro-4-(2,3,5,6-tetrafluorophenoxy)phenyl)-1H-pyrazolo[3,4-d]pyrimidin-1-yl)piperidin-1-yl)prop-2-en-1-one], the IC50 was below 10 nM under setting [1] and 0.8 nM (read-out: BTK IC50).
Consider `CC(=O)CC(=O)N1CCCC(n2nc(-c3ccc(Oc4c(F)c(F)cc(F)c4F)cc3F)c3c(N)ncnc32)C1` (centres unmarked) [Compound 44, 1-(3-(4-amino-3-(2-fluoro-4-(2,3,5,6-tetrafluorophenoxy)phenyl)-1H-pyrazolo[3,4-d]pyrimidin-1-yl)piperidin-1-yl)butane-1,3-dione], for which the IC50 (read-out: BTK IC50) turned out to be 374 nM.
Still for that read-out and setting: the same measure for `C=CC(=O)NCCn1nc(-c2ccc(Oc3c(F)c(F)cc(F)c3F)cc2F)c2c(N)ncnc21` [Compound 82, N-(2-(4-amino-3-(2-fluoro-4-(2,3,5,6-tetrafluorophenoxy)phenyl)-1H-pyrazolo[3,4-d]pyrimidin-1-yl)ethyl)acrylamide]: 25 nM.
For the compound `C=CC(=O)N[C@H]1CC[C@@H](n2nc(-c3ccc(Oc4cccc(F)c4)cc3F)c3c(N)ncnc32)C1` [Compound 17, N-((1s,3r)-3-(4-amino-3-(2-fluoro-4-(3-fluorophenoxy)phenyl)-1H-pyrazolo[3,4-d]pyrimidin-1-yl)cyclopentyl)acrylamide], the IC50 is below 10 nM under setting [1] and 4 nM (read-out: BTK IC50).
For `N#CCCN1CC[C@@H](n2nc(-c3ccc(Oc4c(F)c(F)cc(F)c4F)cc3F)c3c(N)ncnc32)C1` [Compound 114, 3-((R)-3-(4-amino-3-(2-fluoro-4-(2,3,5,6-tetrafluorophenoxy)phenyl)-1H-pyrazolo[3,4-d]pyrimidin-1-yl)pyrrolidin-1-yl)propanenitrile], where the note is “read-out: BTK IC50”, the IC50 is 50 nM.
Same read-out and setting: the figure for `Nc1ncnc2c1c(-c1ccc(Oc3c(F)c(F)cc(F)c3F)cc1F)nn2[C@@H]1CCCN(C(=O)CF)C1` [Compound 107, 1-((R)-3-(4-amino-3-(2-fluoro-4-(2,3,5,6-tetrafluorophenoxy)phenyl)-1H-pyrazolo[3,4-d]pyrimidin-1-yl)piperidin-1-yl)-2-fluoroethanone] is 101 nM; for `Nc1ncnc2c1c(-c1ccc(Oc3c(F)c(F)cc(F)c3F)cc1F)nn2C1CCCN(C(=O)CC(=O)C2CC2)C1` (centres unmarked) [Compound 67, 1-(3-(4-amino-3-(2-fluoro-4-(2,3,5,6-tetrafluorophenoxy)phenyl)-1H-pyrazolo[3,4-d]pyrimidin-1-yl)piperidin-1-yl)-3-cyclopropylpropane-1,3-dione] it is 586 nM; for `Nc1ncnc2c1c(-c1ccc(Oc3c(F)c(F)cc(F)c3F)cc1F)nn2[C@@H]1CCN(C(=O)CCCl)C1` [Compound 58, 1-((R)-3-(4-amino-3-(2-fluoro-4-(2,3,5,6-tetrafluorophenoxy)phenyl)-1H-pyrazolo[3,4-d]pyrimidin-1-yl)pyrrolidin-1-yl)-3-chloropropan-1-one] it is 148 nM.
Take `CNC(=O)/C=C/C(=O)N1CCCC(n2nc(-c3ccc(Oc4c(F)c(F)cc(F)c4F)cc3F)c3c(N)ncnc32)C1` (centres unmarked) [Compound 42, (E)-4-(3-(4-amino-3-(2-fluoro-4-(2,3,5,6-tetrafluorophenoxy)phenyl)-1H-pyrazolo[3,4-d]pyrimidin-1-yl)piperidin-1-yl)-N-methyl-4-oxobut-2-enamide]: the IC50 (read-out: BTK IC50) came out at 38 nM.
As for `C=CC(=O)N1CC[C@@H](n2nc(-c3ccc(Oc4nccc(Cl)n4)cc3F)c3c(N)ncnc32)C1` [Compound 96, 1-((R)-3-(4-amino-3-(4-(4-chloropyrimidin-2-yloxy)-2-fluorophenyl)-1H-pyrazolo[3,4-d]pyrimidin-1-yl)pyrrolidin-1-yl)prop-2-en-1-one], where the note is “read-out: BTK IC50”, the IC50 was determined as 13 nM.
Consider `CC#CC(=O)N1CC[C@@H](n2nc(-c3ccc(Oc4cccc(F)c4)cc3F)c3c(N)ncnc32)C1` [Compound 123, 1-((R)-3-(4-amino-3-(2-fluoro-4-(3-fluorophenoxy)phenyl)-1H-pyrazolo[3,4-d]pyrimidin-1-yl)pyrrolidin-1-yl)but-2-yn-1-one], for which the IC50 under setting [1] is below 10 nM.
In the case of `CNC(=O)N1CCCC(n2nc(-c3ccc(Oc4c(F)c(F)cc(F)c4F)cc3F)c3c(N)ncnc32)C1` (centres unmarked) [Compound 52, 3-(4-amino-3-(2-fluoro-4-(2,3,5,6-tetrafluorophenoxy)phenyl)-1H-pyrazolo[3,4-d]pyrimidin-1-yl)-N-methylpiperidine-1-carboxamide], the IC50 (read-out: BTK IC50) stood at 60 nM.
`N#CN1CC[C@@H](n2nc(-c3ccc(Oc4c(F)c(F)cc(F)c4F)cc3F)c3c(N)ncnc32)C1` [Compound 118]: for the setting “read-out: BTK IC50”, the IC50 came out at 57 nM.
On the same count and under the same terms, the same measure for `Nc1ncnc2c1c(-c1ccc(Oc3c(F)c(F)cc(F)c3F)cc1F)nn2C1CCC(N2C(=O)CSC2=O)CC1` (centres unmarked) [Compound 40, 3-(4-(4-amino-3-(2-fluoro-4-(2,3,5,6-tetrafluorophenoxy)phenyl)-1H-pyrazolo[3,4-d]pyrimidin-1-yl)cyclohexyl)thiazolidine-2,4-dione]: 1640 nM; for `C=CC(=O)N1CC[C@@H](n2nc(-c3ccc(Oc4ccnc(C(=O)NC)c4)cc3F)c3c(N)ncnc32)C1` [Compound 88, 4-(4-(1-((R)-1-acryloylpyrrolidin-3-yl)-4-amino-1H-pyrazolo[3,4-d]pyrimidin-3-yl)-3-fluorophenoxy)-N-methylpicolinamide]: 11 nM.
